Measured values reported in US12139492B2 (Endotarget Inc., priority 2021, dated 2024).
pIC50: −log10 of the molar value. Like-named read-outs stand apart in the source and are kept apart here.

Experiments:
Mino cells = assay: Antiproliferative effect, MTS cell viability assay, Mino cells; format: cell-based; conditions: Homo sapiens, MINO, Mino mantle cell lymphoma cells; read-out: IC50 (anti-proliferation) Mino cells
In short: (§1)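 Mino and JeKo-1 mantle B-cell lymphoma lines were exposed to compound at 0, 0.001, 0.01, 0.1, 1 and 10 μM for 72 h. Viability was read by MTS reduction to formazan, measured as absorbance at 490 nm.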

JeKo-1 cells = assay: Antiproliferative effect, MTS cell viability assay, JeKo-1 cells; format: cell-based; conditions: Homo sapiens; JeKo-1 mantle cell lymphoma cells; read-out: IC50 (anti-proliferation) JeKO-1 cells
In short: as §1

BTK = BTK (Homo sapiens, UniProt Q06187); assay: Degradation of BTK protein in Namalwa cells (Western blot; DC50, Dmax); conditions: for DC50: cell line not given
Chain of BTK (Q06187 whole entry): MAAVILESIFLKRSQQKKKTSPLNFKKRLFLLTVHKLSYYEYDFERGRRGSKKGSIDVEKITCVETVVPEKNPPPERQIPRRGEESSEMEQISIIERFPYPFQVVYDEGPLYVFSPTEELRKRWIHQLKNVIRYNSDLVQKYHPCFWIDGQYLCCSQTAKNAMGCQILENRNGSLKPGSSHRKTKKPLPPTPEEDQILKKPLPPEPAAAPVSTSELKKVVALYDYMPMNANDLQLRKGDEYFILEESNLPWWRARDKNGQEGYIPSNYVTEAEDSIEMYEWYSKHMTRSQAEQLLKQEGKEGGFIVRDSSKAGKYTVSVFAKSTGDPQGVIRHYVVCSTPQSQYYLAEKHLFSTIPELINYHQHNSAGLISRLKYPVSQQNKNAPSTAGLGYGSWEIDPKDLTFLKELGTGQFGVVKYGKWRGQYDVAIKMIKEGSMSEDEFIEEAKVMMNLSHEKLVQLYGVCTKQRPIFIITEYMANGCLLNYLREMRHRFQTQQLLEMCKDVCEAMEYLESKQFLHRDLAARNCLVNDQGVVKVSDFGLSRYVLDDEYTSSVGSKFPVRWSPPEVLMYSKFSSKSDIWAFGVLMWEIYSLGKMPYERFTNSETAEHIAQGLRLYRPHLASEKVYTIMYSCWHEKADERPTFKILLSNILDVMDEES

[1] = read-out: DC50 (BTK degradation), concentration giving 50% reduction of BTK expression level
[2] = read-out: Dmax (BTK degradation)

Molecule `NC(=O)c1c(-c2ccc(Oc3ccccc3)cc2)nn2c1NCC[C@H]2C1CCN(CC2CCN(C(=O)N3CCC(CN4CCC(c5ccc6c(c5)CN(C5CCC(=O)NC5=O)C6=O)CC4)CC3)CC2)CC1` (stereo partly drawn) [Compound 416, (7S)-7-(1-((1-(4-((4-(2-(2,6-dioxopiperidin-3-yl)-1-oxoisoindolin-5-yl)piperidin-1-yl)methyl)piperidine-1-carbonyl)piperidin-4-yl)methyl)piperidin-4-yl)-2-(4-phenoxyphenyl)-4,5,6,7-tetrahydropyrazolo[1,5-a]pyrimidine-3-carboxamide] has a pIC50 (Mino cells) of 5.00 to 6.00, a pIC50 (JeKo-1 cells) of 5.00 to 6.00 and a DC50 (BTK; [1]) of 10 to 50 nM. It also gave a Dmax (BTK; [2]) of over 75%.

`NC(=O)c1c(-c2ccc(Oc3ccccc3)cc2)nn2c1NCCC2C1CCN(CC2CCN(CC3CCN(c4ccc5c(c4)C(=O)N(C4CCC(=O)NC4=O)C5=O)CC3)CC2)CC1` (stereo not shown) [Compound 313, 7-(1-((1-((1-(2-(2,6-dioxopiperidin-3-yl)-1,3-dioxoisoindolin-5-yl)piperidin-4-yl)methyl)piperidin-4-yl)methyl)piperidin-4-yl)-2-(4-phenoxyphenyl)-4,5,6,7-tetrahydropyrazolo[1,5-a]pyrimidine-3-carboxamide] gave a pIC50 (Mino cells) of 5.00 to 6.00, a pIC50 (JeKo-1 cells) of 5.00 to 6.00 and a Dmax (BTK) of over 90%. For the same molecule, the DC50 (BTK; BTK degradation) was 10 to 50 nM.

With `Nc1ncnc2c1c(-c1ccc(Oc3ccccc3)cc1)nn2C1CCN(C2CCN(C(=O)N3CCC(CCCN4CCN(c5ccc6c(c5)CN(C5CCC(=O)NC5=O)C6=O)CC4)CC3)CC2)CC1` (stereo not shown) [Compound 264, 3-(5-(4-(3-(1-(4-(4-amino-3-(4-phenoxyphenyl)-1H-pyrazolo[3,4-d]pyrimidin-1-yl)-[1,4′-bipiperidine]-1′-carbonyl)piperidin-4-yl)propyl)piperazin-1-yl)-1-oxoisoindolin-2-yl)piperidine-2,6-dione] the pIC50 (Mino cells) was 5.00 to 6.00, the pIC50 (JeKo-1 cells) was under 5.00 and the Dmax (BTK) was over 75%. For the same molecule, the DC50 (BTK; BTK degradation) was 10 to 50 nM.

For `NC1=NC=NC2C1C(c1ccc(Oc3ccccc3)cc1)=NN2C1CCN(C(=O)N2CC(C3CN(c4ccc5c(c4)CN([C@H]4CCC(=O)NC4=O)C5=O)C3)C2)CC1` (stereo partly drawn) [Compound 495, (3S)-3-(5-(1′-(4-(4-amino-3-(4-phenoxyphenyl)-3a,7a-dihydro-1H-pyrazolo[3,4-d]pyrimidin-1-yl)piperidine-1-carbonyl)-[3,3′-biazetidin]-1-yl)-1-oxoisoindolin-2-yl)piperidine-2,6-dione], the pIC50 (Mino cells) was over 6.00, the pIC50 (JeKo-1 cells) was over 6.00 and the DC50 (BTK; [1]) was under 10 nM. For the same molecule, the Dmax (BTK; [2]) was over 90%.

`NC(=O)c1c(-c2ccc(Oc3ccccc3)cc2)nn2c1NCC[C@H]2C1CCN(CC2CCN(CCN3CCN(c4ccc5c(c4)C(=O)N(C4CCC(=O)NC4=O)C5=O)CC3)CC2)CC1` (stereo partly drawn) [Compound 331, (7S)-7-(1-((1-(2-(4-(2-(2,6-dioxopiperidin-3-yl)-1,3-dioxoisoindolin-5-yl)piperazin-1-yl)ethyl)piperidin-4-yl)methyl)piperidin-4-yl)-2-(4-phenoxyphenyl)-4,5,6,7-tetrahydropyrazolo[1,5-a]pyrimidine-3-carboxamide] gave a pIC50 (Mino cells) of under 5.00, a pIC50 (JeKo-1 cells) of 5.00 to 6.00 and a Dmax (BTK) of over 75%. For the same molecule, the DC50 (BTK; BTK degradation) was over 50 nM.

In the case of `NC(=O)c1c(-c2ccc(Oc3ccccc3)cc2)nn2c1NCCC2C1CCN(CC2CCN(C(=O)N3CCC(C4CCN(c5ccc6c(c5)C(=O)N(C5CCC(=O)NC5=O)C6=O)CC4)CC3)CC2)CC1` (stereo not shown) [Compound 365, 7-(1-((1-(1′-(2-(2,6-dioxopiperidin-3-yl)-1,3-dioxoisoindolin-5-yl)-[4,4′-bipiperidine]-1-carbonyl)piperidin-4-yl)methyl)piperidin-4-yl)-2-(4-phenoxyphenyl)-4,5,6,7-tetrahydropyrazolo[1,5-a]pyrimidine-3-carboxamide], the pIC50 (Mino cells) was over 6.00, the pIC50 (JeKo-1 cells) was over 6.00 and the Dmax (BTK) was over 90%. The DC50 (BTK; BTK degradation) was 10 to 50 nM.

For `Nc1ncnc2c1c(-c1ccc(Oc3ccccc3)cc1)nn2C1CCN(C2CCN(CCN3CCC(c4ccc5c(c4)C(=O)N(C4CCC(=O)NC4=O)C5=O)CC3)CC2)CC1` (stereo not shown) [Compound 219, 5-(1-(2-(4-(4-amino-3-(4-phenoxyphenyl)-1H-pyrazolo[3,4-d]pyrimidin-1-yl)-[1,4′-bipiperidin]-1′-yl)ethyl)piperidin-4-yl)-2-(2,6-dioxopiperidin-3-yl)isoindoline-1,3-dione], the pIC50 (Mino cells) was 5.00 to 6.00, the pIC50 (JeKo-1 cells) was 5.00 to 6.00 and the Dmax (BTK) was over 50%. The DC50 (BTK; BTK degradation) was 10 to 50 nM.

`Nc1ncnc2c1c(-c1ccc(Oc3ccccc3)cc1)cn2C1CCN(CCN2CC(N3CCN(c4ccc5c(c4)CN(C4CCC(=O)NC4=O)C5=O)CC3)C2)CC1` (stereo not shown) [Compound 464, 3-(5-(4-(1-(2-(4-(4-amino-5-(4-phenoxyphenyl)-7H-pyrrolo[2,3-d]pyrimidin-7-yl)piperidin-1-yl)ethyl)azetidin-3-yl)piperazin-1-yl)-1-oxoisoindolin-2-yl)piperidine-2,6-dione] showed a pIC50 (Mino cells) of 5.00 to 6.00, a pIC50 (JeKo-1 cells) of 5.00 to 6.00 and a DC50 (BTK; [1]) of 10 to 50 nM. The Dmax (BTK; [2]) was over 75%.

Work on `Nc1ncnc2c1c(-c1ccc(Oc3ccccc3)cc1)nn2C1CCN(C2CCN(CC3CCN(CC4CN(c5ccc6c(c5)CN(C5CCC(=O)NC5=O)C6=O)C4)CC3)CC2)CC1` (stereo not shown) [Compound 436, 3-(5-(3-((4-((4-(4-amino-3-(4-phenoxyphenyl)-1H-pyrazolo[3,4-d]pyrimidin-1-yl)-[1,4′-bipiperidin]-1′-yl)methyl)piperidin-1-yl)methyl)azetidin-1-yl)-1-oxoisoindolin-2-yl)piperidine-2,6-dione] yielded a pIC50 (Mino cells) of over 6.00, a pIC50 (JeKo-1 cells) of 5.00 to 6.00 and a DC50 (BTK; [1]) of under 10 nM. For the same molecule, the Dmax (BTK; [2]) was over 90%.

For `Nc1ncnc2c1c(-c1ccc(Oc3ccccc3)cc1)nn2C1CCN(C2CCN(C(=O)N3CCC(CCN4CCC(c5ccc6c(c5)C(=O)N(C5CCC(=O)NC5=O)C6=O)CC4)CC3)CC2)CC1` (stereo not shown) [Compound 253, 5-(1-(2-(1-(4-(4-amino-3-(4-phenoxyphenyl)-1H-pyrazolo[3,4-d]pyrimidin-1-yl)-[1,4′-bipiperidine]-1′-carbonyl)piperidin-4-yl)ethyl)piperidin-4-yl)-2-(2,6-dioxopiperidin-3-yl)isoindoline-1,3-dione], the pIC50 (Mino cells) was 5.00 to 6.00, the pIC50 (JeKo-1 cells) was 5.00 to 6.00 and the Dmax (BTK) was over 90%. For the same molecule, the DC50 (BTK; BTK degradation) was 10 to 50 nM.

`Nc1ncnc2c1c(-c1ccc(Oc3ccccc3)cc1)nn2C1CCN([C@@H]2CCN(CC3CCN(c4ccc5c(c4)C(=O)N(C4CCC(=O)NC4=O)C5=O)CC3)C2)CC1` (stereo partly drawn) [Compound 449b, 5-(4-(((R)-3-(4-(4-amino-3-(4-phenoxyphenyl)-1H-pyrazolo[3,4-d]pyrimidin-1-yl)piperidin-1-yl)pyrrolidin-1-yl)methyl)piperidin-1-yl)-2-(2,6-dioxopiperidin-3-yl)isoindoline-1,3-dione] was tested, and the pIC50 (Mino cells) was over 6.00, the pIC50 (JeKo-1 cells) was over 6.00 and the DC50 (BTK; [1]) was under 10 nM. It also gave a Dmax (BTK; [2]) of over 90%.

Molecule `Nc1ncnc2c1c(-c1ccc(Oc3ccccc3)cc1)nn2C1CCN(C2CCN(C(=O)N3CCN(CCCN4CCN(c5ccc6c(c5)C(=O)N(C5CCC(=O)NC5=O)C6=O)CC4)CC3)CC2)CC1` (stereo not shown) [Compound 257, 5-(4-(3-(4-(4-(4-amino-3-(4-phenoxyphenyl)-1H-pyrazolo[3,4-d]pyrimidin-1-yl)-[1,4′-bipiperidine]-1′-carbonyl)piperazin-1-yl)propyl)piperazin-1-yl)-2-(2,6-dioxopiperidin-3-yl)isoindoline-1,3-dione] has a pIC50 (Mino cells) of under 5.00, a pIC50 (JeKo-1 cells) of under 5.00 and a Dmax (BTK) of over 75%. It also gave a DC50 (BTK; BTK degradation) of over 50 nM.

In the case of `NC1=NC=NC2C1C(c1ccc(Oc3ccccc3)cc1)=NN2C1CCN(C2CN(C(=O)N3CC(C4CN(c5ccc6c(c5)CN(C5CCC(=O)NC5=O)C6=O)C4)C3)C2)CC1` (stereo not shown) [Compound 500, 3-(5-(1′-(3-(4-(4-amino-3-(4-phenoxyphenyl)-3a,7a-dihydro-1H-pyrazolo[3,4-d]pyrimidin-1-yl)piperidin-1-yl)azetidine-1-carbonyl)-[3,3′-biazetidin]-1-yl)-1-oxoisoindolin-2-yl)piperidine-2,6-dione], the pIC50 (Mino cells) was over 6.00, the pIC50 (JeKo-1 cells) was 5.00 to 6.00 and the DC50 (BTK; [1]) was 10 to 50 nM. It also gave a Dmax (BTK; [2]) of over 90%.

In the case of `Nc1ncnc2c1c(-c1ccc(Oc3ccccc3)cc1)nn2[C@@H]1CCCN(C2CN(C(=O)N3CC(N4CCN(c5ccc6c(c5)C(=O)N(C5CCC(=O)NC5=O)C6=O)CC4)C3)C2)C1` (stereo partly drawn) [Compound 479, 5-(4-(1-(3-((R)-3-(4-amino-3-(4-phenoxyphenyl)-1H-pyrazolo[3,4-d]pyrimidin-1-yl)piperidin-1-yl)azetidin-1-carbonyl)azetidin-3-yl)piperazin-1-yl)-2-(2,6-dioxopiperidin-3-yl)isoindoline-1,3-dione], the pIC50 (Mino cells) was 5.00 to 6.00, the pIC50 (JeKo-1 cells) was 5.00 to 6.00 and the DC50 (BTK; [1]) was under 10 nM. The Dmax (BTK; [2]) was over 90%.

With `Nc1ncnc2c1c(-c1ccc(Oc3ccccc3)cc1)nn2C1CCN(C[C@@H]2CCN(CC3CN(c4ccc5c(c4)C(=O)N(C4CCC(=O)NC4=O)C5=O)C3)C2)CC1` (stereo partly drawn) [Compound 423b, 5-(3-(((S)-3-((4-(4-amino-3-(4-phenoxyphenyl)-1H-pyrazolo[3,4-d]pyrimidin-1-yl)piperidin-1-yl)methyl)pyrrolidin-1-yl)methyl)azetidin-1-yl)-2-(2,6-dioxopiperidin-3-yl)isoindoline-1,3-dione] the pIC50 (Mino cells) was over 6.00, the pIC50 (JeKo-1 cells) was 5.00 to 6.00 and the DC50 (BTK; [1]) was 10 to 50 nM. The Dmax (BTK; [2]) was over 90%.

`Nc1ncnc2c1c(-c1ccc(Oc3ccccc3)cc1)nn2C1CCN(CC2CCN(CC3CCN(c4ccc(NC5CCC(=O)NC5=O)cc4)CC3)CC2)CC1` (stereo not shown) [Compound 557, 3-((4-(4-((4-((4-(4-amino-3-(4-phenoxyphenyl)-1H-pyrazolo[3,4-d]pyrimidin-1-yl)piperidin-1-yl)methyl)piperidin-1-yl)methyl)piperidin-1-yl)phenyl)amino)piperidine-2,6-dione] was tested, and the pIC50 (Mino cells) was over 6.00, the pIC50 (JeKo-1 cells) was over 6.00 and the DC50 (BTK; [1]) was under 10 nM. For the same molecule, the Dmax (BTK; [2]) was over 90%.
